Test results published in patent publication US8134015B2, “Compound inhibiting in vivo phosphorous transport and medicine containing the same” (Kyowa Hakko Kirin Co., Ltd., priority 2003, dated 2012).

The compounds below were run against T1, rat NaPi-2b (Rattus norvegicus, UniProt Q9JJ09) (assay: Sodium-dependent phosphate uptake of Xenopus oocytes which expressed NaPi-2b (32P)). Settings: Xenopus oocytes expressing rat NaPi-2b, 32P radioactive phosphorus; read-out: IC50 (phosphate uptake inhibitory activity).
T1 construct: expressed in transfected cells; host or cells: Xenopus oocytes injected with cRNA
T1 sequence (Q9JJ09 1-695): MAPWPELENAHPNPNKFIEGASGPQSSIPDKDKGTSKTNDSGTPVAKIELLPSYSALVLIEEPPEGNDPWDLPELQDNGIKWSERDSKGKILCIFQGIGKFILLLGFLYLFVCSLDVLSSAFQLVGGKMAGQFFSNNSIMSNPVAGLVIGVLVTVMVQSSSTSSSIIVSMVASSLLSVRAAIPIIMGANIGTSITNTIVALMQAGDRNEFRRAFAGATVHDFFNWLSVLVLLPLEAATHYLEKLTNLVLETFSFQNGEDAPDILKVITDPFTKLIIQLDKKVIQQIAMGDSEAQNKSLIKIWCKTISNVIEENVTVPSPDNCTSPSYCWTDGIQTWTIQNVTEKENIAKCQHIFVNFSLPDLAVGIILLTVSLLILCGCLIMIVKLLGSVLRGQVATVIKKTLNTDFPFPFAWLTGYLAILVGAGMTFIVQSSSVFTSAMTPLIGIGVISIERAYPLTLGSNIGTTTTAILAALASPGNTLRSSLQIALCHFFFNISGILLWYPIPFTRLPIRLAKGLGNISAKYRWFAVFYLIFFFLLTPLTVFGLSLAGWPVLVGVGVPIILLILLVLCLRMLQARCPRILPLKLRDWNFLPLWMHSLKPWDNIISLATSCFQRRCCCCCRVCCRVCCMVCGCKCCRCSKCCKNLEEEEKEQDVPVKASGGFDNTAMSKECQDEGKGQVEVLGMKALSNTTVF
Format: cell-based
In short: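 Oocytes injected with rat NaPi-2b cRNA, cultured 2 d, then 32P uptake measured with compound. Values: % inhibition at 300 and 100 μM, both from one inhibition curve.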

Row | IC50 | SMILES
1 | 1.82 µM | CCN(CCO)Cc1cccc(C(=O)Nc2ccc(Cl)cc2C(=O)N/N=C/c2cccc(OC)c2)c1 [Compound 428, N-[4-Chloro-2-(3-methoxy-benzylidene-hydrazinocarbonyl)-phenyl]-3-{[ethyl-(2-hydroxy-ethyl)-amino]-methyl}-benzamide]
2 | 5.88 µM | CCN(CCO)Cc1cccc(C(=O)Nc2ccc(Cl)cc2C(=O)N/N=C/c2ccc(OC)cc2)c1 [Compound 429, N-[4-Chloro-2-(4-methoxy-benzylidene-hydrazinocarbonyl)-phenyl]-3-{[ethyl-(2-hydroxy-ethyl)-amino]-methyl}-benzamide]
3 | 4.53 µM | CCN(CCO)Cc1cccc(C(=O)Nc2ccc(Cl)cc2C(=O)N/N=C/c2cccc(O)c2)c1 [Compound 430, N-[4-Chloro-2-(3-hydroxy-benzylidene-hydrazinocarbonyl)-phenyl]-3-{[ethyl-(2-hydroxy-ethyl)-amino]-methyl}-benzamide]
4 | 5.57 µM | CCN(CCO)Cc1cccc(C(=O)Nc2ccc(Cl)cc2C(=O)N/N=C/c2ccc(O)cc2)c1 [Compound 431, N-[4-Chloro-2-(4-hydroxy-benzylidene-hydrazinocarbonyl)-phenyl]-3-{[ethyl-(2-hydroxy-ethyl)-amino]-methyl}-benzamide]
5 | 22.2 µM | CCN(CCO)Cc1ccc(C(=O)Nc2ccc(Cl)cc2C(=O)N/N=C/c2cccc(F)c2)cc1 [Compound 432, N-[4-Chloro-2-(3-fluoro-benzylidene-hydrazinocarbonyl)-phenyl]-4-{[ethyl-(2-hydroxy-ethyl)-amino]-methyl}-benzamide]
6 | 14.3 µM | CCN(CCO)Cc1ccc(C(=O)Nc2ccc(Cl)cc2C(=O)N/N=C/c2ccc(F)cc2)cc1 [Compound 433, N-[4-Chloro-2-(4-fluoro-benzylidene-hydrazinocarbonyl)-phenyl]-4-{[ethyl-(2-hydroxy-ethyl)-amino]-methyl}-benzamide]
7 | 7.78 µM | CCN(CCO)Cc1ccc(C(=O)Nc2ccc(Cl)cc2C(=O)N/N=C/c2cccc(C)c2)cc1 [Compound 434, N-[4-Chloro-2-(3-methyl-benzylidene-hydrazinocarbonyl)-phenyl]-4-{[ethyl-(2-hydroxy-ethyl)-amino]-methyl}-benzamide]
8 | 7.65 µM | CCN(CCO)Cc1ccc(C(=O)Nc2ccc(Cl)cc2C(=O)N/N=C/c2ccc(C)cc2)cc1 [Compound 435, N-[4-Chloro-2-(4-methyl-benzylidene-hydrazinocarbonyl)-phenyl]-4-{[ethyl-(2-hydroxy-ethyl)-amino]-methyl}-benzamide]
9 | 8.36 µM | CCN(CCO)Cc1ccc(C(=O)Nc2ccc(Cl)cc2C(=O)N/N=C/c2ccc(C)c(C)c2)cc1 [Compound 436, N-[4-Chloro-2-(3,4-dimethyl-benzylidene-hydrazinocarbonyl)-phenyl]-4-{[ethyl-(2-hydroxy-ethyl)-amino]-methyl}-benzamide]
10 | < 3 µM | CCN(CCO)Cc1ccc(C(=O)Nc2ccc(Cl)cc2C(=O)N/N=C/c2ccc(Cl)c(C(F)(F)F)c2)cc1 [Compound 437, N-[4-Chloro-2-(4-chloro-3-trifluoromethyl-benzylidene-hydrazinocarbonyl)-phenyl]-4-{[ethyl-(2-hydroxy-ethyl)-amino]-methyl}-benzamide]
11 | 26.3 µM | CCN(CCO)Cc1ccc(C(=O)Nc2ccc(Cl)cc2C(=O)N/N=C/c2cccc(OC)c2)cc1 [Compound 438, N-[4-Chloro-2-(3-methoxy-benzylidene-hydrazinocarbonyl)-phenyl]-4-{[ethyl-(2-hydroxy-ethyl)-amino]-methyl}-benzamide]
12 | 28.7 µM | CCN(CCO)Cc1ccc(C(=O)Nc2ccc(Cl)cc2C(=O)N/N=C/c2ccc(OC)cc2)cc1 [Compound 439, N-[4-Chloro-2-(4-methoxy-benzylidene-hydrazinocarbonyl)-phenyl]-4-{[ethyl-(2-hydroxy-ethyl)-amino]-methyl}-benzamide]
13 | 32.4 µM | CCN(CCO)Cc1ccc(C(=O)Nc2ccc(Cl)cc2C(=O)N/N=C/c2cccc(O)c2)cc1 [Compound 440, N-[4-Chloro-2-(3-hydroxy-benzylidene-hydrazinocarbonyl)-phenyl]-4-{[ethyl-(2-hydroxy-ethyl)-amino]-methyl}-benzamide]
14 | 40.1 µM | CCN(CCO)Cc1ccc(C(=O)Nc2ccc(Cl)cc2C(=O)N/N=C/c2ccc(O)cc2)cc1 [Compound 441, N-[4-Chloro-2-(4-hydroxy-benzylidene-hydrazinocarbonyl)-phenyl]-4-{[ethyl-(2-hydroxy-ethyl)-amino]-methyl}-benzamide]
15 | < 3 µM | CN(C)CCn1nnnc1SCc1cccc(C(=O)Nc2ccc(Cl)cc2C(=O)N/N=C/c2cccc(F)c2)c1 [Compound 462, N-[4-Chloro-2-(3-fluoro-benzylidene-hydrazinocarbonyl)-phenyl]-3-[1-(2-dimethylamino-ethyl)-1H-tetrazol-5-ylsulfanylmethyl]-benzamide]
16 | 4.44 µM | CN(C)CCn1nnnc1SCc1cccc(C(=O)Nc2ccc(Cl)cc2C(=O)N/N=C/c2ccc(F)cc2)c1 [Compound 463, N-[4-Chloro-2-(4-fluoro-benzylidene-hydrazinocarbonyl)-phenyl]-3-[1-(2-dimethylamino-ethyl)-1H-tetrazol-5-ylsulfanylmethyl]-benzamide]
17 | 5 µM | Cc1cccc(/C=N/NC(=O)c2cc(Cl)ccc2NC(=O)c2cccc(CSc3nnnn3CCN(C)C)c2)c1 [Compound 464, N-[4-Chloro-2-(3-methyl-benzylidene-hydrazinocarbonyl)-phenyl]-3-[1-(2-dimethylamino-ethyl)-1H-tetrazol-5-ylsulfanylmethyl]-benzamide]
18 | 7.43 µM | Cc1ccc(/C=N/NC(=O)c2cc(Cl)ccc2NC(=O)c2cccc(CSc3nnnn3CCN(C)C)c2)cc1 [Compound 465, N-[4-Chloro-2-(4-methyl-benzylidene-hydrazinocarbonyl)-phenyl]-3-[1-(2-dimethylamino-ethyl)-1H-tetrazol-5-ylsulfanylmethyl]-benzamide]
19 | < 3 µM | Cc1ccc(/C=N/NC(=O)c2cc(Cl)ccc2NC(=O)c2cccc(CSc3nnnn3CCN(C)C)c2)cc1C [Compound 466, N-[4-Chloro-2-(3,4-dimethyl-benzylidene-hydrazinocarbonyl)-phenyl]-3-[1-(2-dimethylamino-ethyl)-1H-tetrazol-5-ylsulfanylmethyl]-benzamide]
20 | 7.94 µM | CN(C)CCn1nnnc1SCc1cccc(C(=O)Nc2ccc(Cl)cc2C(=O)N/N=C/c2ccc(Cl)c(C(F)(F)F)c2)c1 [Compound 467, N-[4-Chloro-2-(4-chloro-3-trifluoromethyl-benzylidene-hydrazinocarbonyl)-phenyl]-3-[1-(2-dimethylamino-ethyl)-1H-tetrazol-5-ylsulfanylmethyl]-benzamide]
21 | 22.4 µM | COc1cccc(/C=N/NC(=O)c2cc(Cl)ccc2NC(=O)c2cccc(CSc3nnnn3CCN(C)C)c2)c1 [Compound 468, N-[4-Chloro-2-(3-methoxy-benzylidene-hydrazinocarbonyl)-phenyl]-3-[1-(2-dimethylamino-ethyl)-1H-tetrazol-5-ylsulfanylmethyl]-benzamide]
22 | 33.2 µM | COc1ccc(/C=N/NC(=O)c2cc(Cl)ccc2NC(=O)c2cccc(CSc3nnnn3CCN(C)C)c2)cc1 [Compound 469, N-[4-Chloro-2-(4-methoxy-benzylidene-hydrazinocarbonyl)-phenyl]-3-[1-(2-dimethylamino-ethyl)-1H-tetrazol-5-ylsulfanylmethyl]-benzamide]
